Tested on: prothrombin time (PT) of normal plasma NKP
Assay: Three wet-chemistry Owren PT methods (Simple Simon PT; 20, 10, 5 μL sample in 200 μL reagent) on normal plasma NKP with added anticoagulant
Format: biochemical
Method: Experimental work was performed with the commercially available ambient room temperature coagulation instrument, Simple Simon P T Zafena A B, Linköping, Sweden, with functions described in EP 1 636 595 B2. One instrument or reader was used for each PT-method. Alternatively, the same instrument could be used for all PT-methods.
The three instruments were used together standing next to one another on a laboratory bench in thermal equilibrium with the ambient room temperature of the laboratory.
The ambient room temperature in the laboratory where the work was done varied between 21° C. and 26° C.
The PT-reagent was the one delivered together with lot N223M of the Simple Simon PT product, a reagent of Owren-type that thus contains effective amounts of thromboplastin, fibrinogen and FV (the thromboplastin of rabbit brain origin and the fibrinogen and the FV of bovine blood plasma origin). Other Owren type reagents could also be used.
The reagent was in portions of 200 μL to which sample, citrated blood or citrated blood plasma, was added and mixed. The addition was by an end-to-end plastic capillary mounted at one end of a tubular body with a displacement mechanism in the other end, this to allow convenient mixing of sample and reagent. Such Mixxocaps with 10 μL capillaries are supplied with the Simple Simon PT product. To perform the experiments described, some Mixxocaps were fitted with 20 μL capillaries, or 5 μL capillaries instead of the 10 μL capillaries with which they were supplied by the manufacturer.
The ratios between the volume of blood or blood plasma to the volume of liquid reagent used in the experiments were 1:11, 1:21 and 1:41. Other ratios lying within the range of 1:5 and 1:100 or within the range of 1:2 and 1:200 could be used.
Anticoagulated normal plasma was the NKP product GHI-163 lot 10188, MediRox AB, Nyköping, Sweden.
It was further relevant that all three PT-methods were calibrated, according to the invention, to show INR 1.000 for unadulterated NKP, and INR 1.357 for the NKP 1:2. All primary INR values, the results that appeared on the instrument screens (one instrument or reader was used for each PT-method), were therefore transformed to the corrected/calibrated INRc by the formula A*INRexp(B) where a and b were selected to given NKP and NKP 1:2 their desired values, 1.000 and 1.357, respectively. The INR-value of the NKP 1:2 was calculated by the formula of Lindahl et al for the INR of corresponding to PT-activity of 50% (half of the 100% that equates to INR 1.000). Above the INR calibrated columns (INRc) there is an upper number and a lower number, these are the above mentioned A and B, respectively.
As deemed relevant the upper number is selected to make NKP 1:2 to show INRc 1.357.
Clinical levels of interest range from 50 to 1000 μg/L in blood plasma.
In the selected calibration INR 1.000 and INR 1.357 were assigned to NKP and NKP 1:2, respectively, which was the same relevant calibration as selected in Examples 1 and 3 above.

[1] = apixaban 50 μg/L in NKP plasma, from PT (s)
[2] = apixaban 50 μg/L in NKP plasma, from instrument INR
[3] = apixaban 100 μg/L in NKP plasma
[4] = apixaban 100 μg/L in NKP plasma, from PT (s)
[5] = apixaban 100 μg/L in NKP plasma, from instrument INR
[6] = apixaban 200 μg/L in NKP plasma
[7] = apixaban 200 μg/L in NKP plasma, from PT (s)
[8] = apixaban 200 μg/L in NKP plasma, from instrument INR
[9] = apixaban 300 μg/L in NKP plasma
[10] = apixaban 300 μg/L in NKP plasma, from PT (s)
[11] = apixaban 300 μg/L in NKP plasma, from instrument INR
[12] = apixaban 400 μg/L in NKP plasma
[13] = apixaban 400 μg/L in NKP plasma, from PT (s)
[14] = apixaban 400 μg/L in NKP plasma, from instrument INR
[15] = apixaban 500 μg/L in NKP plasma
[16] = apixaban 500 μg/L in NKP plasma, from PT (s)
[17] = apixaban 500 μg/L in NKP plasma, from instrument INR
[18] = apixaban 600 μg/L in NKP plasma
[19] = apixaban 600 μg/L in NKP plasma, from PT (s)
[20] = apixaban 600 μg/L in NKP plasma, from instrument INR
[21] = apixaban 800 μg/L in NKP plasma
[22] = apixaban 800 μg/L in NKP plasma, from PT (s)
[23] = apixaban 800 μg/L in NKP plasma, from instrument INR
[24] = apixaban 1000 μg/L in NKP plasma
[25] = apixaban 1000 μg/L in NKP plasma, from PT (s)
[26] = apixaban 1000 μg/L in NKP plasma, from instrument INR

COc1ccc(-n2nc(C(N)=O)c3c2C(=O)N(c2ccc(N4CCCCC4=O)cc2)CC3)cc1 [apixaban]
INR 5 μL sample (apixaban 50 μg/L in NKP plasma): 1.12
INR 10 μL sample (apixaban 50 μg/L in NKP plasma): 1.18
INR 20 μL sample (apixaban 50 μg/L in NKP plasma): 1.28
PT (s) 5 μL sample (apixaban 50 μg/L in NKP plasma): 47.7 s
PT (s) 10 μL sample (apixaban 50 μg/L in NKP plasma): 39.1 s
PT (s) 20 μL sample (apixaban 50 μg/L in NKP plasma): 35.5 s
INRc 20 μL sample [1]: 1.23
ΔINRc 10 μL − 5 μL [1]: 0.04
ΔINRc 20 μL − 5 μL [1]: 0.19
INRc 20 μL sample [2]: 1.30
ΔINR 10 μL − 5 μL [2]: 0.07
ΔINR 20 μL − 5 μL [2]: 0.24
INR 5 μL sample [3]: 1.15
INR 10 μL sample [3]: 1.27
INR 20 μL sample [3]: 1.55
PT (s) 5 μL sample [3]: 49.1 s
PT (s) 10 μL sample [3]: 41.5 s
PT (s) 20 μL sample [3]: 39.3 s
INRc 20 μL sample [4]: 1.61
ΔINRc 10 μL − 5 μL [4]: 0.12
ΔINRc 20 μL − 5 μL [4]: 0.53
INRc 10 μL sample [5]: 1.24
INRc 20 μL sample [5]: 1.67
ΔINR 10 μL − 5 μL [5]: 0.15
ΔINR 20 μL − 5 μL [5]: 0.58
INR 5 μL sample [6]: 1.29
INR 10 μL sample [6]: 1.53
INR 20 μL sample [6]: 2.12
PT (s) 5 μL sample [6]: 54.4 s
PT (s) 10 μL sample [6]: 47.9 s
PT (s) 20 μL sample [6]: 46.7 s
INRc 5 μL sample [7]: 1.20
INRc 20 μL sample [7]: 2.53
ΔINRc 10 μL − 5 μL [7]: 0.31
INRc 5 μL sample [8]: 1.22
INRc 10 μL sample [8]: 1.55
INRc 20 μL sample [8]: 2.51
ΔINR 10 μL − 5 μL [8]: 0.34
ΔINR 20 μL − 5 μL [8]: 1.30
INR 5 μL sample [9]: 1.44
INR 10 μL sample [9]: 1.82
INR 20 μL sample [9]: 2.82
PT (s) 5 μL sample [9]: 60.6 s
PT (s) 10 μL sample [9]: 54.6 s
PT (s) 20 μL sample [9]: 54.8 s
INRc 5 μL sample [10]: 1.35
INRc 10 μL sample [10]: 1.88
INRc 20 μL sample [10]: 3.85
ΔINRc 10 μL − 5 μL [10]: 0.53
ΔINRc 20 μL − 5 μL [10]: 2.50
INRc 5 μL sample [11]: 1.35
INRc 10 μL sample [11]: 1.91
INRc 20 μL sample [11]: 3.66
ΔINR 10 μL − 5 μL [11]: 0.56
ΔINR 20 μL − 5 μL [11]: 2.30
INR 5 μL sample [12]: 1.58
INR 20 μL sample [12]: 3.68
PT (s) 5 μL sample [12]: 66.3 s
PT (s) 10 μL sample [12]: 62.3 s
PT (s) 20 μL sample [12]: 63.5 s
INRc 5 μL sample [13]: 1.48
INRc 20 μL sample [13]: 5.66
ΔINRc 10 μL − 5 μL [13]: 0.86
ΔINRc 20 μL − 5 μL [13]: 4.18
INRc 5 μL sample [14]: 1.48
INRc 20 μL sample [14]: 5.18
ΔINR 10 μL − 5 μL [14]: 0.87
ΔINR 20 μL − 5 μL [14]: 3.70
INR 5 μL sample [15]: 1.73
INR 10 μL sample [15]: 2.37
INR 20 μL sample [15]: 4.47
PT (s) 5 μL sample [15]: 72.0 s
PT (s) 10 μL sample [15]: 67.0 s
PT (s) 20 μL sample [15]: 70.8 s
INRc 5 μL sample [16]: 1.62
INRc 10 μL sample [16]: 2.64
INRc 20 μL sample [16]: 7.54
ΔINRc 10 μL − 5 μL [16]: 1.02
ΔINRc 20 μL − 5 μL [16]: 5.92
INRc 5 μL sample [17]: 1.62
INRc 10 μL sample [17]: 2.63
INRc 20 μL sample [17]: 6.69
ΔINR 10 μL − 5 μL [17]: 1.02
ΔINR 20 μL − 5 μL [17]: 5.07
INR 5 μL sample [18]: 1.90
INR 10 μL sample [18]: 2.70
INR 20 μL sample [18]: 5.56
PT (s) 5 μL sample [18]: 78.8 s
PT (s) 10 μL sample [18]: 73.9 s
PT (s) 20 μL sample [18]: 79.9 s
INRc 5 μL sample [19]: 1.78
INRc 10 μL sample [19]: 3.10
INRc 20 μL sample [19]: 10.35
ΔINRc 10 μL − 5 μL [19]: 1.32
ΔINRc 20 μL − 5 μL [19]: 8.57
INRc 5 μL sample [20]: 1.77
INRc 10 μL sample [20]: 3.08
INRc 20 μL sample [20]: 8.91
ΔINR 10 μL − 5 μL [20]: 1.31
ΔINR 20 μL − 5 μL [20]: 7.14
INR 5 μL sample [21]: 2.22
INR 10 μL sample [21]: 3.35
INR 20 μL sample [21]: 7.81
PT (s) 5 μL sample [21]: 91.7 s
PT (s) 10 μL sample [21]: 87.2 s
PT (s) 20 μL sample [21]: 96.9 s
INRc 5 μL sample [22]: 2.09
INRc 20 μL sample [22]: 17.18
ΔINRc 10 μL − 5 μL [22]: 1.99
INRc 5 μL sample [23]: 2.06
INRc 20 μL sample [23]: 13.91
ΔINR 10 μL − 5 μL [23]: 1.94
ΔINR 20 μL − 5 μL [23]: 11.85
INR 5 μL sample [24]: 2.67
INR 20 μL sample [24]: 10.70
PT (s) 5 μL sample [24]: 111.2 s
PT (s) 10 μL sample [24]: 109.3 s
PT (s) 20 μL sample [24]: 117.4 s
INRc 20 μL sample [25]: 28.43
INRo [25]: 0.75
ΔINRc 10 μL − 5 μL [25]: 3.37
ΔINRc 20 μL − 5 μL [25]: 25.85
INRc 20 μL sample [26]: 21.03
INRo [26]: 0.78
ΔINR 10 μL − 5 μL [26]: 3.12
ΔINR 20 μL − 5 μL [26]: 18.56
content at which the INRc-difference (20 μL minus 5 μL) reaches 0.5 (normal plasma NKP, linear part of the graph (FIG. 8, FIG. 2)): about 80 μg/L
